From US7105508B1, “Integrin receptors antagonists” (Abbott GmbH & Co. KG, priority 1999, dated 2006)

target: T1, integrin αvβ3 (Homo sapiens, UniProt P05106+P06756); experiment: Integrin αvβ3 assay (competition with vitronectin for solid phase-bound integrin αvβ3); details: competition with human vitronectin for binding to solid phase-bound integrin αvβ3 from human placenta; qualitative ranking only
T1 construct: from tissue; host or cells: human placenta
Description: Integrin αvβ3 antagonists were identified and assessed by using an assay system based on competition between the natural integrin αvβ3 ligand vitronectin and the test substance for binding to solid phase-bound integrin αvβ3.
• Coat microtiter plates with 250 ng/ml integrin αvβ3 in 0.05 M NaHCO3 pH 9.2; 0.1 ml/well; • saturate with 1% milk powder/assay buffer; 0.3 ml/well; 0.5 h/RT • wash 3× with 0.05% Tween 20/assay buffer • test substance in 0.1% milk powder/assay buffer, 50 μl/well+0 μg/ml or 2 μg/ml human vitronectin (Boehringer Ingelheim T007) in 0.1% milk powder/assay buffer, 50 μl/well; 1 h/RT • wash 3× with 0.05% Tween 20/assay buffer • 1 μg/ml anti-human vitronectin antibody coupled to peroxidase (Kordia SAVN-APHRP) in 0.1% milk powder/assay buffer; 0.1 ml/well; 1 h/RT • wash 3× with 0.05% Tween 20/assay buffer • 0.1 ml/well peroxidase substrate • stop reaction with 0.1 ml/well 2 M H2SO4 • measure absorption at 450 nm
Integrin αvβ3: human placenta is solubilized with Nonidet, and integrin αvβ3 is affinity-purified on a GRGDSPK matrix (elution with EDTA). Contamination by integrin αIIbβ3 and human serum albumin, and the detergent and EDTA, are removed by anion exchange chromatography.
Assay buffer: 50 mM Tris pH 7.5; 100 mM NaCl; 1 mM CaCl2; 1 mM MgCl2; 10 μM MnCl2
Peroxidase substrate: mix 0.1 ml of TMB solution (42 mM TMB in DMSO) and 10 ml of substrate buffer (0.1 M Na acetate, pH 4.9) and then add 14.7 μl of 3% H2O2.
Various dilutions of the test substances are used in the assay, and the IC50 values are determined (concentration of the antagonist at which 50% of the ligand is displaced).

IC50 values (concentration of the antagonist at which 50% of the ligand is displaced)	SMILES
best results	CC(=O)OC1c2ccccc2C(=O)N(CC(=O)NCc2ccc(Nc3nc4ccccc4[nH]3)cc2)c2ccccc21 (stereo not shown) [Example I.B.37, 5-(2-{[4-(1H-Benzimidazol-2-ylamino)benzyl]amino}-2-oxoethyl)-6-oxo-6,11-dihydro-5H-dibenzo[b,e]azepin-11-yl acetate]
best results	CC(=O)OC1c2ccccc2C(=O)N(CC(=O)NCc2cnc(NC(=N)N)s2)c2ccccc21 (stereo not shown) [Example I.B.46, 5-(2-{[(2-{[Amino(imino)methyl]amino}-1,3-thiazol-5-yl)-methyl]amino}-2-oxoethyl)-6-oxo-6,11-dihydro-5H-dibenzo[b,e]-azepin-11-yl acetate]
best results	O=C(O)CC1c2ccccc2C(=O)N(CC(=O)NCc2ccc(NC(=O)NCc3ccccc3)cc2)c2ccccc21 (stereo not shown) [Example I.B.52, (5-{2-[(4-{[(Benzylamino)carbonyl]amino}benzyl)amino]-2-oxoethyl}-6-oxo-6,11-dihydro-5H-dibenzo[b,e]azepin-11-yl)acetic acid]
best results	CC(=O)OC1c2ccccc2C(=O)N(Cc2nc(C(=O)NCc3cc(CNc4ccccn4)cs3)cs2)c2ccccc21 (stereo not shown) [Example I.B.118, 6-Oxo-5-[(4-{[({4-[(2-pyridinylamino)methyl]-2-thienyl}methyl)-amino]carbonyl}-1,3-thiazol-2-yl)methyl]-6,11-dihydro-5H-dibenzo [b,e]azepin-11-yl acetate]
